Earlier results in US20100330171A1, “Dietary Supplement for Eye Health” (priority 2008, published 2010).

How the values were obtained:
[1] = system: tube formation; settings: Matigel-induced tube formation assay
[2] = compared with ascorbic acid (vitamin C) and tocopherol (vitamin E)
[3] = biological target: VEGFR-2 (Homo sapiens, UniProt P35968); settings: serum concentrations 0.01-1 microM
[4] = system: angiogenesis; settings: chick chorioallantoic membrane assay
[5] = system: TNF-alpha
[6] = system: bovine endothelial cells; settings: in vitro, bovine endothelial cells stimulated by FGF-2
[7] = biological target: T1, leukocyte elastase (Homo sapiens, UniProt P08246)
T1 sequence (P08246 30-267): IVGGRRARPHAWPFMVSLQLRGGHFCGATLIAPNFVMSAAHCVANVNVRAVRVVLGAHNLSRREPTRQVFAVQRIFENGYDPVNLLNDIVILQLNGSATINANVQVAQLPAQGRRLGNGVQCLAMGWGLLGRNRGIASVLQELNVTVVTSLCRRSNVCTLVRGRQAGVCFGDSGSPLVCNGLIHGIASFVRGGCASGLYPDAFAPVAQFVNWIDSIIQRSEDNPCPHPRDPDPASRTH

[8] = system: human colon cancer cell line; settings: by blocking the induction of VEGF
[9] = biological target: MMP-9 (Homo sapiens, UniProt P14780)
[10] = system: human umbilical vein endothelial cells (HUVEC)
[11] = system: phosophoinositide-dependent protein kinase, Akt, apoptosis signal-regulating kinase, p38; settings: fibroblast growth factor-treated HUVEC

Sequence of VEGFR-2 (P35968 20-1356, species assumed): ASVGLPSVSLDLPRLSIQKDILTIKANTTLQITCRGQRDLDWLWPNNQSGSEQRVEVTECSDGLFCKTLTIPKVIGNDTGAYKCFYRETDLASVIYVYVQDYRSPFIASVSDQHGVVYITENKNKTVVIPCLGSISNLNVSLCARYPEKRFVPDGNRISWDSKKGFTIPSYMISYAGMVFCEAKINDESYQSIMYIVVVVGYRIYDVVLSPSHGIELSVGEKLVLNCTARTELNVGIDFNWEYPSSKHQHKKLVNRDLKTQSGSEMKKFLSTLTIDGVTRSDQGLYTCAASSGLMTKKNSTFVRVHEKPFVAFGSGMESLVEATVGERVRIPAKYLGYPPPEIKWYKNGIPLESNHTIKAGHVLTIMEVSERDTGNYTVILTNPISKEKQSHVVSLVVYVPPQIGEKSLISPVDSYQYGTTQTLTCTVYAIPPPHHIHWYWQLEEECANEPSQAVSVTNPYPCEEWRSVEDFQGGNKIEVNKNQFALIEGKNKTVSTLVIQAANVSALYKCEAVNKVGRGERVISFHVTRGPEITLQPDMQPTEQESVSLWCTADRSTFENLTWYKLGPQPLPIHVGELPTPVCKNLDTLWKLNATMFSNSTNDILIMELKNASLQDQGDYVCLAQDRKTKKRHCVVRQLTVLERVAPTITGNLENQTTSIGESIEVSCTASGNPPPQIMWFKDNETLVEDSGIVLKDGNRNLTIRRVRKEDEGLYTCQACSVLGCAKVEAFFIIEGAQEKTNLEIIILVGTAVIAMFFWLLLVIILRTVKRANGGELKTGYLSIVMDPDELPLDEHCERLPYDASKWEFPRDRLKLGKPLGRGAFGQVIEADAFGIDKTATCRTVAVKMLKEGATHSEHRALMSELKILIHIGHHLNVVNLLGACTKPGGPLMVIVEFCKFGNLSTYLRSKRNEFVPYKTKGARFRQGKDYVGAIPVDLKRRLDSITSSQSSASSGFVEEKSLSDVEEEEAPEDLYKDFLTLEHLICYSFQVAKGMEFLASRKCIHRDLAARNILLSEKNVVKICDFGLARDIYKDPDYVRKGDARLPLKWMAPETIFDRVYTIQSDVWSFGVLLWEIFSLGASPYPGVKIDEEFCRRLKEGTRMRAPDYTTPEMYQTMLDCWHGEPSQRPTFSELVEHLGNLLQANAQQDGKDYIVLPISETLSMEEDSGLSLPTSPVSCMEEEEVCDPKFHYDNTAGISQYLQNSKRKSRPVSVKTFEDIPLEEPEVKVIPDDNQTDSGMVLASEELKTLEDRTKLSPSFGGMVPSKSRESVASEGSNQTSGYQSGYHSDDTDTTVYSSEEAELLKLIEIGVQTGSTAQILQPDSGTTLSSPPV
Sequence of MMP-9 (P14780 94-707, species assumed): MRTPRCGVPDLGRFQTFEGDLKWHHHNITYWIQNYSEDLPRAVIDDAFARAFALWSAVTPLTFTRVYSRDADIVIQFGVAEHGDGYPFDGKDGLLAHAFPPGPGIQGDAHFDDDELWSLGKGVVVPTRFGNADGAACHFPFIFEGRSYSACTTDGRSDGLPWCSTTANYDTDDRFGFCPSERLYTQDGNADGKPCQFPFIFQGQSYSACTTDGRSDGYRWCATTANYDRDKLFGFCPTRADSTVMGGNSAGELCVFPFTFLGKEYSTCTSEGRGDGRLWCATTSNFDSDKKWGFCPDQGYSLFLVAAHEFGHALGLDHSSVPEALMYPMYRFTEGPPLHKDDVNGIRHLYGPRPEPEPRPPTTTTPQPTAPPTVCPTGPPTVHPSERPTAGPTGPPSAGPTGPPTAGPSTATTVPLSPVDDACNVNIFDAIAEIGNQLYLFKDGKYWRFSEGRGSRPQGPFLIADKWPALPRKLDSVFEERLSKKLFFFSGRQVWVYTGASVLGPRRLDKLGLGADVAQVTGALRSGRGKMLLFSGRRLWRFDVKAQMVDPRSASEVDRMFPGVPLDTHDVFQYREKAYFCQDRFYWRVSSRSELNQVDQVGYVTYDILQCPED

Compound	tube formation [1]	quenching reactive oxygen species [2]	inhibition of VEGF-dependent phosphorylation of VEGFR-2 [3]	formation of new blood vessels [4]	gene expression of TNF-alpha and the cytokines IL-1 beta and IL-10 induced by TNF-alpha [5]	endothelial cell growth [6]	inhibition of leukocyte elastase [7]	microvessel density [8]	inhibition of MMP-9 [9]	suppression of fibroblast growth factor-induced proliferation, migration and tube formation [10]	phosphorylation of apoptosis signal-regulating kinase and p38 [11]	phosphorylation of phosophoinositide-dependent protein kinase and Akt [11]
Epigallocatechin-3-gallate [EGCG]	almost completely abolished	more effective	inhibit	block	block	suppress	inhibit	reduces	inhibits			
CC(C)=CCC/C(C)=C/CC/C(C)=C/CC[C@]1(C)CCc2cc(O)c(C)c(C)c2O1 [γ-tocotrienol]										highest activity	increasing	suppressing
O=C(O[C@@H]1Cc2c(O)cc(O)cc2O[C@H]1c1ccc(O)c(O)c1)c1cc(O)c(O)c(O)c1 [CG, catechin-3 gallate]	almost completely abolished		inhibit									
